Test results from patent US20240059691A1 (KALVISTA PHARMACEUTICALS LIMITED, priority 2020, published 2024).

How the values were obtained:
[1] = biological target: FXIa (Homo sapiens (Human), UniProt P03951); experiment: Determination of related protease inhibition: FXIa (fixed substrate concentration of 100 μM); format: biochemical; conditions: 25° C.
Method: (§1) Determination of Related Protease Inhibition
(§2) In vitro inhibition of related proteases was determined using an ([…] assay based on standard literature methods (see e.g. Shori et al., Biochem. Pharmacol., 1992, 43, 1209; Bouckaert et al., European Journal of Medicinal Chemistry 110 (2016) 181). Human serine protease enzymes Plasma Kallikrein, KLK1, FXa, Plasmin, Thrombin and Trypsin were assayed for enzymatic activity using an appropriate fluorogenic substrate at Km concentration, FXIa at fixed substrate concentration of 100 μM, and various concentrations of the test compound. Protease activity was measured by monitoring the accumulation of liberated fluorescence from the substrate over […]. The linear rate of fluorescence increase per minute was expressed as percentage (%) activity. IC50 values were calculated as the concentration of inhibitor giving 50% inhibition of the uninhibited enzyme activity (100%).

[2] = biological target: Plasma Kallikrein (Homo sapiens (Human), UniProt P03952); experiment: Determination of related protease inhibition: Plasma Kallikrein (fluorogenic substrate at Km); format: biochemical; conditions: 25° C., read-out: IC50 (human PKal)
Outline: (§3)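 Human enzyme incubated with test compound over a concentration range and a fluorogenic substrate at its Km concentration. Liberated fluorescence monitored over 5 min at 25 °C; linear rate per minute expressed as % of uninhibited activity, and IC50 taken as the concentration giving 50% inhibition.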

[3] = biological target: FXa (Homo sapiens (Human), UniProt P00742); experiment: Determination of related protease inhibition: FXa (fluorogenic substrate at Km); format: biochemical; conditions: 25° C.
Outline: as §3

[4] = biological target: Thrombin (Homo sapiens (Human), UniProt P00734); experiment: Determination of related protease inhibition: Thrombin (fluorogenic substrate at Km); format: biochemical; conditions: 25° C.
Outline: as §3

[5] = biological target: Human Factor XIIa (Homo sapiens (Human), UniProt P00748); experiment: Determination of FXIIa inhibition (fluorogenic substrate H-DPro-Phe-Arg-AFC, IC50 assay); format: biochemical; conditions: substrate H-DPro-Phe-Arg-AFC at Km, 25° C.; class scale A-G
Outline: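 Human FXIIa incubated at 25° C with fluorogenic substrate H-DPro-Phe-Arg-AFC at its Km concentration and varying compound concentrations. Fluorescence release monitored over 5 min at 25° C; linear rate expressed as % of uninhibited activity to derive IC50.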

[6] = biological target: Plasmin (Homo sapiens (Human), UniProt P00747); experiment: Determination of related protease inhibition: Plasmin (fluorogenic substrate at Km); format: biochemical; conditions: 25° C.
Method: as §1, §2

[7] = biological target: KLK1 (Homo sapiens (Human), UniProt P06870); experiment: Determination of related protease inhibition: KLK1 (fluorogenic substrate at Km); format: biochemical; conditions: 25° C.
Outline: as §3

[8] = biological target: Trypsin; experiment: Determination of related protease inhibition: Trypsin (fluorogenic substrate at Km); format: biochemical, human; conditions: 25° C.
Method: as §1, §2

[9] = Pharmacokinetics following a single intravenous dose and a single oral dose in male Sprague-Dawley rats (oral bioavailability, half-life); format: in vivo; conditions: rat, plasma, 10% DMSO/10% Cremophor EL/80% SWFI; for bioavailability: read-out: F % (oral bioavailability)
Method: Pharmacokinetic studies of the compounds in Table 16 were performed to assess the pharmacokinetics following a single intravenous dose and a single oral dose in male Sprague-Dawley rats. Two rats were given a single intravenous dose of 1 mL/kg of a nominal 1 mg/mL (1 mg/kg) composition of test compound in 10% DMSO/10% Cremophor EL/80% SWFI vehicle. Example 2191 was dosed at 1 mL/kg of a nominal 2 mg/mL (2 mg/kg) using the same vehicle.
Two rats were given a single oral dose of 5 mL/kg of a nominal 1 mg/mL (5 mg/kg) composition of test compound in 10% DMSO/10% Cremophor EL/80% SWFI vehicle. Example 2191 was dosed at 5 mL/kg of a nominal 2 mg/mL (10 mg/kg) using the same vehicle.
Following intravenous dosing, blood samples were collected over a period of 12 h. Sample times were 2, 5, 15 and 30 min then 1, 2, 4, 6, and 12 h. Following oral dosing, blood samples were collected over a period of 24 h. Sample times were 5, 15 and 30 min then 1, 2, 4, 6, 8, 12 and 24 h.
Following collection, blood samples were centrifuged and the plasma fraction analysed for concentration of test compound by LCMS. Oral bioavailability and half-life calculations from these studies were obtained using Phoenix WinNonlin (v8.0) and are shown below: […]

Chain of FXIa (P03951 388-625): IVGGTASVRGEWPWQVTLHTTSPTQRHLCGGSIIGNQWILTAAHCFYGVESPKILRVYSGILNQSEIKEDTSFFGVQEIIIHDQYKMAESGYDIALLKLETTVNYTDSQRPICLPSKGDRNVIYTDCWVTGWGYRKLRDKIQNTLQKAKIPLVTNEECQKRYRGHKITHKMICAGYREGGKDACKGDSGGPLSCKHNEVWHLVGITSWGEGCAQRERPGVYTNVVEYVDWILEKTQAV
Chain of FXIa (P03951 19-387 partner): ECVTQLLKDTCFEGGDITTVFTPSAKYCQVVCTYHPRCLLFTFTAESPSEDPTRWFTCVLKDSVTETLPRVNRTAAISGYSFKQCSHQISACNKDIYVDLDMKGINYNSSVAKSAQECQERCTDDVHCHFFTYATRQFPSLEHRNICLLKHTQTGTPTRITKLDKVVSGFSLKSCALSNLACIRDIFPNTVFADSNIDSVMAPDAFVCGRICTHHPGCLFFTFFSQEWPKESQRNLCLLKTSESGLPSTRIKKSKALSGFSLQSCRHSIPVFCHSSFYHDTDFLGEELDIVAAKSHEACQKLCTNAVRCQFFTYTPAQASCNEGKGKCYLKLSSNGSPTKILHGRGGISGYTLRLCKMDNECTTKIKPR
Chain of KLK1 (P06870 25-262): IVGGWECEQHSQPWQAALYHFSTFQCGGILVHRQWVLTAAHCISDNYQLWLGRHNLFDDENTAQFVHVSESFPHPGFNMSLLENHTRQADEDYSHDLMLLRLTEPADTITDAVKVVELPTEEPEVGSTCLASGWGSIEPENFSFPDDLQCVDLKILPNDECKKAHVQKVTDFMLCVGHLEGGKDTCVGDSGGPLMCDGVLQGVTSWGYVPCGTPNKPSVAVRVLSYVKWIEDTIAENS
Chain of Plasma Kallikrein (P03952 391-638): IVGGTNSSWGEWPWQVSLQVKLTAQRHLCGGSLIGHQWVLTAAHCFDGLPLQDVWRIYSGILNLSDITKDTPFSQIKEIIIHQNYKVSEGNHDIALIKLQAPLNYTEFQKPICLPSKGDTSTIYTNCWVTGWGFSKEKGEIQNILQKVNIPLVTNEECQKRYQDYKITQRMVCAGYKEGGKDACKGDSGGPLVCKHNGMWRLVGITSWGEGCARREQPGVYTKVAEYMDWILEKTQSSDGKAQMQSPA
Chain of Plasma Kallikrein (P03952 20-390 partner): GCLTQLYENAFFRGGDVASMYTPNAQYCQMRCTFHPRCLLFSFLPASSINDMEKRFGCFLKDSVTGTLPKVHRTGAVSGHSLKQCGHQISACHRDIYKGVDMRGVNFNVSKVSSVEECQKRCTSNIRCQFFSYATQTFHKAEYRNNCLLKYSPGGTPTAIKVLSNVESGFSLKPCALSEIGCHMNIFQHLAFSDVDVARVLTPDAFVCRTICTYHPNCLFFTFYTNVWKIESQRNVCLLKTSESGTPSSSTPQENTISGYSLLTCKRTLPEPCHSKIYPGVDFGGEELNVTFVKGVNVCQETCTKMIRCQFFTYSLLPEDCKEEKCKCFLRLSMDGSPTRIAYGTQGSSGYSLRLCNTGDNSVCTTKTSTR
Chain of Human Factor XIIa (P00748 373-615): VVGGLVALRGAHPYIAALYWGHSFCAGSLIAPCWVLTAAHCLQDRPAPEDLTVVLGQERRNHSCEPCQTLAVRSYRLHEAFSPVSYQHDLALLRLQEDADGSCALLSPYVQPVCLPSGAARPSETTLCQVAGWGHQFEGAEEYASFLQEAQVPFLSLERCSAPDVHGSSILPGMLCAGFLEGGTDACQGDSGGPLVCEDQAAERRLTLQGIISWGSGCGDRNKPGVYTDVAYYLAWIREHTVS
Chain of FXa (P00742 235-488): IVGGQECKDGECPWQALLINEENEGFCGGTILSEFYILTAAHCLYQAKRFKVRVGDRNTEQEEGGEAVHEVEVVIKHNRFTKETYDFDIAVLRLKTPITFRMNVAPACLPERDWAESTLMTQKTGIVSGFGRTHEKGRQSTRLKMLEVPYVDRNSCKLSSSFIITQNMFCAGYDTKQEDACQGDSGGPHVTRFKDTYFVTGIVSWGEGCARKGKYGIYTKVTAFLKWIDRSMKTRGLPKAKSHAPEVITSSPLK
Chain of FXa (P00742 41-179 partner): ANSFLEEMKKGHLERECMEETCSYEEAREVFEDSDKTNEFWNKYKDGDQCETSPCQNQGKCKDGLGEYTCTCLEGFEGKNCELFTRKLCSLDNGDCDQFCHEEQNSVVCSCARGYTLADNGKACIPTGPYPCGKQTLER
Chain of Plasmin (P00747 581-810): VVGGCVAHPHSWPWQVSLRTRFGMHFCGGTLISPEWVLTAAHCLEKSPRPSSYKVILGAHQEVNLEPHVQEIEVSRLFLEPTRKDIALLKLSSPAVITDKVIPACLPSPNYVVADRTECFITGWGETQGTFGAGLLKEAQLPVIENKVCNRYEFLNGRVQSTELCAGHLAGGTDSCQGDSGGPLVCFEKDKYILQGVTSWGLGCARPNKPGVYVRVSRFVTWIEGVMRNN
Chain of Plasmin (P00747 97-580 partner): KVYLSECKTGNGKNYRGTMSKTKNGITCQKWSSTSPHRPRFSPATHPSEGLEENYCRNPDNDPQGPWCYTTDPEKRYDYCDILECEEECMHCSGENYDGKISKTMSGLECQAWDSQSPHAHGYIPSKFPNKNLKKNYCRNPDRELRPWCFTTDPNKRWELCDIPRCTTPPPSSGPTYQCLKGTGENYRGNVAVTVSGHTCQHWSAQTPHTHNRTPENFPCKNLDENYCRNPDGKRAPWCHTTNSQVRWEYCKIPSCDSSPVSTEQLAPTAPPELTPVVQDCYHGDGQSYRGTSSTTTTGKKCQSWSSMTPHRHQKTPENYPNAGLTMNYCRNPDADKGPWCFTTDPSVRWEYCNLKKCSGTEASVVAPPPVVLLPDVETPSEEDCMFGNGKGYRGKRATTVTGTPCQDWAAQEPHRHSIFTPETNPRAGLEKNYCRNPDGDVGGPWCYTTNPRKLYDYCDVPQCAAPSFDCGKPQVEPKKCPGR

SMILES | IC50 [1] | IC50 [2] | IC50 [3] | IC50 [4] | IC50 [5] | IC50 [6] | IC50 [7] | IC50 [8] | half-life [9] | bioavailability [9]
Cc1cn2c(n1)CC(COc1cc(CNc3cccc4c(N)nccc34)ccn1)CC2 (single isomer, unassigned) [Example 4446, (S*)-N5-((2-((2-methyl-5,6,7,8-tetrahydroimidazo[1,2-a]pyridin-7-yl)methoxy)pyridin-4-yl)methyl)isoquinoline-1,5-diamine] | 10 to 40 µM | 3 to 10 µM | 3 to 10 µM | > 40 µM | 0.01 to 0.1 µM | > 40 µM | 3 to 10 µM | 10 to 40 µM | – | –
CC(C)N1C[C@@H]2C[C@H]1CN2CCc1ccc(CNc2cccc3c(N)nccc23)c(F)c1 (stereo in doubt) [Example 2212, N5-[[2-fluoro-4-[2-[(1S,4S)-5-isopropyl-2,5-diazabicyclo[2.2.1]heptan-2-yl]ethyl]phenyl]methyl]isoquinoline-1,5-diamine] | > 40 µM | 3 to 10 µM | > 40 µM | > 40 µM | 0.1 to 0.3 µM | > 40 µM | 10 to 40 µM | > 40 µM | 4.34 h | 6.8%
Nc1nccc2c(NCc3ccc(N4CCn5ccnc5C4)nc3)cccc12 [Example 1128, 5-N-[(6-{5H,6H,8H-imidazo[1,2-a]piperazin-7-yl}pyridin-3-yl)methyl]isoquinoline-1,5-diamine] | > 40 µM | > 40 µM | > 40 µM | 10 to 40 µM | 0.3 to 1 µM | > 40 µM | 3 to 10 µM | > 40 µM | – | –
CN1CCC(CNc2ccc(CNc3ccnc4[nH]ccc34)cn2)CC1 [Example 1197, N-((6-(((1-methylpiperidin-4-yl)methyl)amino)pyridin-3-yl)methyl)-1H-pyrrolo[2,3-b]pyridin-4-amine] | > 40 µM | > 40 µM | > 40 µM | > 40 µM | 1 to 3 µM | > 40 µM | > 40 µM | > 40 µM | – | –
CN1CCC(COc2cc(CNc3ccc4cnccc4c3)ccn2)CC1 [Example 4262, N-({2-[(1-methylpiperidin-4-yl)methoxy]pyridin-4-yl}methyl)isoquinolin-6-amine] | > 40 µM | 10 to 40 µM | 10 to 40 µM | > 40 µM | 3 to 10 µM | > 40 µM | 10 to 40 µM | > 40 µM | – | –
CN1CCC(COc2cc(CNc3ccc4c(N)ncc(Cl)c4c3)ccn2)CC1 [Example 4268, 4-Chloro-N6-((2-((1-methylpiperidin-4-yl)methoxy)pyridin-4-yl)methyl)isoquinoline-1,6-diamine] | > 40 µM | 10 to 40 µM | 3 to 10 µM | > 40 µM | 0.01 to 0.1 µM | > 40 µM | 1 to 3 µM | > 40 µM | 12.4 h | 3%
CN1CCC(COc2cc(CNc3cc4ccnc(N)c4cn3)ccn2)CC1 [Example 4271, 6-N-({2-[(1-methylpiperidin-4-yl)methoxy]pyridin-4-yl}methyl)-2,7-naphthyridine-1,6-diamine] | > 40 µM | 10 to 40 µM | 0.3 to 1 µM | 10 to 40 µM | 1 to 3 µM | > 40 µM | 10 to 40 µM | > 40 µM | – | –
Nc1ncc(F)c2c(NCc3ccnc(OCC4CCn5ccnc5C4)c3)cccc12 (stereo not shown) [Example 4308, 4-fluoro-5-N-[(2-{5H,6H,7H,8H-imidazo[1,2-a]pyridin-7-ylmethoxy}pyridin-4-yl)methyl]isoquinoline-1,5-diamine] | > 40 µM | > 40 µM | > 40 µM | > 40 µM | 3 to 10 µM | > 40 µM | 10 to 40 µM | > 40 µM | – | –
Nc1ncc(Cl)c2cc(NCc3ccnc(N4CCn5ccnc5C4)c3)ccc12 [Example 4437, 4-chloro-6-N-[(2-{5H,6H,8H-imidazo[1,2-a]pyrazin-7-yl}pyridin-4-yl)methyl]isoquinoline-1,6-diamine] | > 40 µM | > 40 µM | 3 to 10 µM | 10 to 40 µM | 0.1 to 0.3 µM | > 40 µM | 3 to 10 µM | > 40 µM | – | –
